PMC5958743, “A Novel Catecholopyrimidine Based Small Molecule PDE4B Inhibitor Suppresses Inflammatory Cytokines in Atopic Mice” (Frontiers in Pharmacology, 2018)

Columns and labels:
DNCB-induced NC/Nga mice [1] = experiment: DNCB-induced atopic dermatitis model, serum IgE and cytokines by ELISA; format: in vivo, mouse; settings: for serum IL-4 level / serum IL-5 level: topical 1% compound 1 (p < 0.05) or 0.3% compound 2 (p < 0.01); for serum IL-4 level / serum IL-5 level / serum IL-17 level: vs DNCB alone; for serum IL-17 level: topical 1% compound 1 (p < 0.5) or 0.3% compound 2 (p < 0.01); for serum IFN-γ level (reduced by DNCB): topical 1% compound 1 or 0.3% compound 2; for serum IgE level: topical 1% compound 1 or 0.3% compound 2, p < 0.01 vs DNCB
Method: (§1) Male NC/Nga mice, 7-weeks-old, were purchased from Central Lab Animal Inc., South Korea. All mice were housed in specific pathogen-free conditions at the animal facility center of the College of Pharmacy at Seoul National University (Seoul, Korea), and were maintained at 24 – 26°C with a 12 h light and dark cycle. Animal experiments were conducted in accordance with protocols approved by the Institutional Animal Care and Use Committee of Seoul National University.
(§2) NC/Nga mice were classified into six groups (n = 6): (1) vehicle alone, acetone-olive oil (Sigma-Aldrich, St. Louis, MO, United States) in a ratio of 3:1 was used as a vehicle; (2) 1% of compound-1 with vehicle alone; (3) 0.3% of compound-2 with vehicle alone; (4) DNCB+vehicle; (5) DNCB + 1% of compound-1 mixed with vehicle; and (6) DNCB + 0.3% of compound-2 mixed with vehicle. DNCB (Sigma-Aldrich, St. Louis, MO, United States) was used to induce AD on the dorsal skin of the mice. Compound 1 and 2 were dissolved in 150 μl of vehicle and topically applied on the atopic tissue. Hair on the backs of the mice were removed using an electric clipper. Two days later, 150 μl of 1% DNCB was dissolved in the vehicle and applied on the dorsal skin twice with an interval period of 4 days. Afterward, 150 μl of 0.2% DNCB dissolved in the vehicle was applied to challenge the dorsal skin twice-a-week for 5 weeks. AD-induced mice were co-treated with either compound-1 or compound-2 once daily from day six onward until the end of the experiments.
On the final day of the experimental scheme, blood samples were collected from the experimental animals. Serum was isolated and stored at -80°C along with protease inhibitor cocktail for later use (Thermo Fisher Scientific, United States). Serum IL-4, IL-5, IL-17, IFN-γ, and IgE levels were measured according to the manufacturer’s instructions (Biolegend, San Diego, CA, United States; IL-4-431101; IL-17-432501; IL-5-431204; IFN-γ- 430801; IgE-432401; TNF-α- 430901). Serum samples were diluted five-fold for the cytokine assay. 10,000-fold diluted serum samples were utilized for the IgE assay. Absorbance was measured immediately at 492 nm using a multiplate reader (Molecular Devices Spectramax M5, Sunnyvale, CA, United States).

PDE4A4 = biological target: T1, PDE4A4 (Homo sapiens, UniProt P27815); experiment: PDE enzyme inhibitor assay (LANCE Ultra cAMP), PDE4A; format: biochemical; settings: 0.1 ng/well enzyme, 3 nM cAMP, 37°C 1 h
T1 construct: purchased BPS Biosciences
Method: (§3) The enzyme inhibition assay was performed against human PDE enzymes (PDE1A, PDE3A, PDE4A, PDE4B, PDE4C, PDE4D, and PDE7A; BPS Biosciences, San Diego, CA, United States) according to the manufacturer’s instructions (LANCE Ultra cAMP assay kit; Perkin Elmer, United States). In each well, 5 μl of 3 nM cAMP, 2.5 μl of PDE enzyme (0.1 ng/well), and 2.5 μl of inhibitor solution were added, and incubated at 37°C for 1 h. After incubation, 5 μL each of Eu-cAMP and ULight-anti-cAMP detection reagent supplemented with 1 mM of IBMX were added. The reaction mixture was incubated at 37°C for 1 h. After incubation, emission signals were collected at 665 nm using EnVision Multilable Reader (Perkin Elmer, United States).

PDE4D7 = biological target: T2, PDE4D7 (Homo sapiens, UniProt Q08499); experiment: PDE enzyme inhibitor assay (LANCE Ultra cAMP), PDE4D; format: biochemical; settings: for IC50: 0.1 ng/well enzyme, 3 nM cAMP, 37°C 1 h
T2 construct: purchased BPS Biosciences
Method: as §3

PDE7 = biological target: T3, PDE7 (Homo sapiens, UniProt Q13946); experiment: PDE enzyme inhibitor assay (LANCE Ultra cAMP), PDE7; format: biochemical; settings: 0.1 ng/well enzyme, 3 nM cAMP, 37°C 1 h
T3 construct: purchased BPS Biosciences
Method: as §3

DNCB-induced NC/Nga mice [2] = experiment: DNCB-induced atopic dermatitis model, evaluation of skin lesion and organs; format: in vivo, mouse; settings: for dorsal skin thickness / spleen weight / subiliac lymph node size / subiliac lymph node weight / week after which significant reduction in dermatitis score was observed / scratching frequency (DNCB-induced itching sensation) / dermatitis score / AD-like skin features (erythema, hemorrhage, dry skin): DNCB-induced mice; for dorsal skin thickness: end of experiment, DNCB alone 1.19 mm, control 0.45 mm; for dorsal skin thickness / spleen weight / subiliac lymph node size / subiliac lymph node weight: topical 1% compound 1 or 0.3% compound 2; for spleen weight / subiliac lymph node size / subiliac lymph node weight / AD-like skin features (erythema, hemorrhage, dry skin): vs DNCB alone; for week after which significant reduction in dermatitis score was observed / scratching frequency (DNCB-induced itching sensation) / dermatitis score / AD-like skin features (erythema, hemorrhage, dry skin): topical once daily, 1% compound 1 or 0.3% compound 2; for scratching frequency (DNCB-induced itching sensation): measured once-a-week for 5 weeks; for dermatitis score: p < 0.01 vs DNCB; for skin feature of compound alone treated mice: no DNCB, topical 1% compound 1 or 0.3% compound 2 with vehicle alone
Method: as §1, §2
Dermatitis score was measured according to a previously established method, once-a-week for 5 weeks ([Matsuda et al., 1997]). Skin features of dermatitis, such as erythema/hemorrhage, edema, excoriation/erosion, and scaling/dryness were considered in the evaluation. Each symptom was scored as follows: 0 (none); 1 (mild); 2 (moderate); and 3 (severe). The sum of all the scores was defined as the dermatitis score of individual mice, which ranged between 0 and 12. In addition, the scratching behavior of the experimental animals was measured once-a-week for 5 weeks. Specifically, we measured the frequency with which the mice rubbed their dorsal skin, hind paws, nose, and ears for 10 min.

Raw 264.7 cells [3] = experiment: Intracellular cAMP in LPS-stimulated macrophage cell line (ELISA); format: cell-based; settings: 30 nM compound 1 or 15 nM compound 2 for 1 h, then 1 μM LPS 30 min
Method: (§4) The macrophage cell line, Raw 264.7 was maintained for 24 h in serum free DMEM medium. Then, cells were incubated with 30 nM of compound 1 and 15 nM of compound 2 for 1 h. After incubation, 1 μM of LPS (Sigma-Aldrich, United States) was added and incubated for 30 min at 37°C in a humidified 5% CO2 atmosphere. Finally, cells were lysed and supernatants were harvested. Intracellular cAMP levels were measured using the cAMP ELISA kit according to the manufacturer’s instruction (ADI-900-066; Enzo Life Sciences, United States). Similarly, TNFα level was assayed by ELISA analysis according to the manufacturer’s protocol (LEGEND MAX^TM Human TNF-α ELISA Kit, San Diego, CA, United States). Concentration is expressed in pg/mL.

Raw 264.7 cells [4] = experiment: LPS-induced TNF-α in macrophage cell line (ELISA); format: cell-based; settings: 30 nM compound 1 or 15 nM compound 2, 1 μM LPS 30 min
Method: as §4

DNCB-induced NC/Nga mice [5] = experiment: DNCB-induced atopic dermatitis model, histopathology and immunohistochemistry of dorsal skin; format: in vivo, mouse; settings: for mast cell infiltration in the epidermis region (toluidine blue), number of mast cells: topical 1% compound 1 or 0.3% compound 2, DNCB alone 97 ± 10.58, control 13 ± 2; for CD4+ cells in the skin (immunohistochemistry) / epidermal thickening (H&E) / infiltration of inflammatory cells into epidermis and dermis (H&E): topical 1% compound 1 or 0.3% compound 2, vs DNCB alone
Method: as §1, §2
Skin samples collected from the experimental mice were fixed by using 10% neutral buffered formalin, and embedded in paraffin. 4-μm thin tissue sections were prepared and stained with hematoxylin and eosin (H&E; Sigma-Aldrich, United States). To investigate the mast cell infiltration, sections were stained with toluidine blue (Sigma-Aldrich, United States). For immunohistochemical analysis, tissue sections were microwaved in sodium citrate buffer for 10 min to retrieve the antigen/epitope. After incubating with 0.1% triton X-100 containing phosphate buffered saline (PBS), sections were blocked with 10% FBS. Then, sections were incubated overnight with primary antibodies specific for IL-4, 5, 17, IFN-γ, and CD4, respectively (Santa Cruz Biotechnology, Santa Cruz, CA, United States). After treatment with 0.3% H2O2 in 0.1 M PBS for 15 min, sections were incubated with HRP-conjugated secondary antibodies specific for IL-4, 5, 17, IFN-γ, and CD4 for 1 h at room temperature. Diaminobenzidine was used to detect peroxidase activity, which was photographed using an Olympus AX70 light microscope (Tokyo, Japan).

PDE4B1 = biological target: T4, PDE4B1 (Homo sapiens, UniProt Q07343); experiment: PDE enzyme inhibitor assay (LANCE Ultra cAMP), PDE4B; format: biochemical; settings: for IC50: 0.1 ng/well enzyme, 3 nM cAMP, 37°C 1 h; for specificity against PDE4B compared to other PDE enzymes: versus PDE1A, PDE3B, PDE4A, PDE4C, PDE4D, PDE7
T4 construct: purchased BPS Biosciences

PDE1A = biological target: T5, PDE1A (Homo sapiens, UniProt P54750); experiment: PDE enzyme inhibitor assay (LANCE Ultra cAMP), PDE1A; format: biochemical; settings: 0.1 ng/well enzyme, 3 nM cAMP, 37°C 1 h
T5 construct: purchased BPS Biosciences
Method: as §3

PDE3B = PDE3B (Homo sapiens, UniProt Q13370); experiment: PDE enzyme inhibitor assay (LANCE Ultra cAMP), PDE3B; format: biochemical; settings: 0.1 ng/well enzyme, 3 nM cAMP, 37°C 1 h
PDE4C1 = biological target: T6, PDE4C1 (Homo sapiens, UniProt Q08493); experiment: PDE enzyme inhibitor assay (LANCE Ultra cAMP), PDE4C; format: biochemical; settings: 0.1 ng/well enzyme, 3 nM cAMP, 37°C 1 h
T6 construct: purchased BPS Biosciences
Method: as §3

T2 sequence (Q08499 1-748 isoform Q08499-11): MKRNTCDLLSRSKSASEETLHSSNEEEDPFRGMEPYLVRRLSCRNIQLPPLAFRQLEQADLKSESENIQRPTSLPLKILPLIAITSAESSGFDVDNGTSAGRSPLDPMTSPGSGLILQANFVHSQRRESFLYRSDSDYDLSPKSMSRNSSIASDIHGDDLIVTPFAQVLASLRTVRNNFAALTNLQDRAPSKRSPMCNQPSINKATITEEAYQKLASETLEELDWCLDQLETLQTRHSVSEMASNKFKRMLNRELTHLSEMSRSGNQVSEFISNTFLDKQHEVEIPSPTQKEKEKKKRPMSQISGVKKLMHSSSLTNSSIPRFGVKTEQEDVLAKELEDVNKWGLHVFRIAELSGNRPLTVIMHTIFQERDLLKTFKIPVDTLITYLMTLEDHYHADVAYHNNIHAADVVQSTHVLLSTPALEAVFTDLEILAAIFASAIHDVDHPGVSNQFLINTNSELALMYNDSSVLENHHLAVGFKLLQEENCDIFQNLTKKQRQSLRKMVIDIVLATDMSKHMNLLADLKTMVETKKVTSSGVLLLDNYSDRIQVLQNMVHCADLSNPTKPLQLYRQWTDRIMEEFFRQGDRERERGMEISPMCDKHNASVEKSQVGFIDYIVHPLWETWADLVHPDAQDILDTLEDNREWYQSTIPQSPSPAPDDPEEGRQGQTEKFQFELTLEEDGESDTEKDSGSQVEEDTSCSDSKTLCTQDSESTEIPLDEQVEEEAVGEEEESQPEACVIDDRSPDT
T4 sequence (Q07343 whole entry): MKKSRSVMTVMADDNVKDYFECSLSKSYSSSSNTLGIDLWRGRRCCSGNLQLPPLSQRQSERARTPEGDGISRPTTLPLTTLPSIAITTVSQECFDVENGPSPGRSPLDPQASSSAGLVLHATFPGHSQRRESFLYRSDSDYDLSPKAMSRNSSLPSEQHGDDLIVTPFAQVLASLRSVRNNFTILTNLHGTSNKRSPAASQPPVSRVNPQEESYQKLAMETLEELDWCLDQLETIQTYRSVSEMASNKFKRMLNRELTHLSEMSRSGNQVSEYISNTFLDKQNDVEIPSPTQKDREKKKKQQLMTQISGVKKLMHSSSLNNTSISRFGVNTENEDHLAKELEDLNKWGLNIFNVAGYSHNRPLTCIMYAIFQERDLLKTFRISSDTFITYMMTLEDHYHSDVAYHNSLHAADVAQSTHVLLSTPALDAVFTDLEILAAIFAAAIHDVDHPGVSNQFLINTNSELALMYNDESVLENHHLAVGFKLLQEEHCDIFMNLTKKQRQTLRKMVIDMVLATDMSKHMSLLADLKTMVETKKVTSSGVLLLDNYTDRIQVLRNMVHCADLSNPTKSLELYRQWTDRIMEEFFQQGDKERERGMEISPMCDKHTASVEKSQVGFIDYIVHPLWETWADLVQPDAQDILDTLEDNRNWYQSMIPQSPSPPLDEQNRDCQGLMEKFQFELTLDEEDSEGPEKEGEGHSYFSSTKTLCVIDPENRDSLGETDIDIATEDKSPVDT
T3 sequence (Q13946 whole entry): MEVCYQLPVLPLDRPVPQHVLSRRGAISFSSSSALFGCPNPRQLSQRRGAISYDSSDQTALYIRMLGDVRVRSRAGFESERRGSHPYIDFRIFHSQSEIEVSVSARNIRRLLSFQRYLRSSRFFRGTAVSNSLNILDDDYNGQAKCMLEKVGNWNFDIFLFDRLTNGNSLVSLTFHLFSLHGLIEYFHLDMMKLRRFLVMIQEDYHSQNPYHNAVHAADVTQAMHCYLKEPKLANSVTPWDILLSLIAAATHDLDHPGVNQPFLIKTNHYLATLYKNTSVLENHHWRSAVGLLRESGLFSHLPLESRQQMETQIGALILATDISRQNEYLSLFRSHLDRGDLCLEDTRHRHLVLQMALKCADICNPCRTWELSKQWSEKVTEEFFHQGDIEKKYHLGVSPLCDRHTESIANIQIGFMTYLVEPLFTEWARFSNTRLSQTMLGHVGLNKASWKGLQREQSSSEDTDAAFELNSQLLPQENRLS
Sequence of PDE3B (Q13370 whole entry): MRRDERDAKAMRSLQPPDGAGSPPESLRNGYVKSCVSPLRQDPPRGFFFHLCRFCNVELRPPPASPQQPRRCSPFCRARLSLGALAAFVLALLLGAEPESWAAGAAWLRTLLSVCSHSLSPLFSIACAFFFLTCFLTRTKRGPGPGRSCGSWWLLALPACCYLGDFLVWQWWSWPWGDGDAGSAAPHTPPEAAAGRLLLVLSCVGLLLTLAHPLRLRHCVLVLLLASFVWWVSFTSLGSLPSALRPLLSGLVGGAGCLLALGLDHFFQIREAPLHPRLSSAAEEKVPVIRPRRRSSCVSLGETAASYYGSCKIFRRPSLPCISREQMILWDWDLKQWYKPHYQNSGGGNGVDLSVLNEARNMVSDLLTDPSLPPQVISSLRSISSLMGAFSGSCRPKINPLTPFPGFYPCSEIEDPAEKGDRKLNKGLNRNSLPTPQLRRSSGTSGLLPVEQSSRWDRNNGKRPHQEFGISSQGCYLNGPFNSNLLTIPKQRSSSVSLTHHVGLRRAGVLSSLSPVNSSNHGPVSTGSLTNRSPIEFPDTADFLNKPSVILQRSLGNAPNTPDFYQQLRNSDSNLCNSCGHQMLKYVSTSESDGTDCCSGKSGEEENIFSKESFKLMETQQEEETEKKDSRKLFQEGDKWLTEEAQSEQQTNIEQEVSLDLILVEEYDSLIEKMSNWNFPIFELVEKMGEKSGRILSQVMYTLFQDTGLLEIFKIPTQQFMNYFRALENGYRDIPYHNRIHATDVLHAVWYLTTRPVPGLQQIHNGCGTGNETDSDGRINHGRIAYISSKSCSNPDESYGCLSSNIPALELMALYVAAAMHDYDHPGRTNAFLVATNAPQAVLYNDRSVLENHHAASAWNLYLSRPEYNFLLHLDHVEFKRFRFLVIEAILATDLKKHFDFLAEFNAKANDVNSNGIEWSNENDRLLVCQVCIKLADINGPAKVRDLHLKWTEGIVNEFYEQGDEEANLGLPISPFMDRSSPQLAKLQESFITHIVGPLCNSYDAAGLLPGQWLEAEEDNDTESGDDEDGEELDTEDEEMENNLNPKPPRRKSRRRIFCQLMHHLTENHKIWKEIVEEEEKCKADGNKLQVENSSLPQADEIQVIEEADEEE
T1 sequence (P27815 whole entry): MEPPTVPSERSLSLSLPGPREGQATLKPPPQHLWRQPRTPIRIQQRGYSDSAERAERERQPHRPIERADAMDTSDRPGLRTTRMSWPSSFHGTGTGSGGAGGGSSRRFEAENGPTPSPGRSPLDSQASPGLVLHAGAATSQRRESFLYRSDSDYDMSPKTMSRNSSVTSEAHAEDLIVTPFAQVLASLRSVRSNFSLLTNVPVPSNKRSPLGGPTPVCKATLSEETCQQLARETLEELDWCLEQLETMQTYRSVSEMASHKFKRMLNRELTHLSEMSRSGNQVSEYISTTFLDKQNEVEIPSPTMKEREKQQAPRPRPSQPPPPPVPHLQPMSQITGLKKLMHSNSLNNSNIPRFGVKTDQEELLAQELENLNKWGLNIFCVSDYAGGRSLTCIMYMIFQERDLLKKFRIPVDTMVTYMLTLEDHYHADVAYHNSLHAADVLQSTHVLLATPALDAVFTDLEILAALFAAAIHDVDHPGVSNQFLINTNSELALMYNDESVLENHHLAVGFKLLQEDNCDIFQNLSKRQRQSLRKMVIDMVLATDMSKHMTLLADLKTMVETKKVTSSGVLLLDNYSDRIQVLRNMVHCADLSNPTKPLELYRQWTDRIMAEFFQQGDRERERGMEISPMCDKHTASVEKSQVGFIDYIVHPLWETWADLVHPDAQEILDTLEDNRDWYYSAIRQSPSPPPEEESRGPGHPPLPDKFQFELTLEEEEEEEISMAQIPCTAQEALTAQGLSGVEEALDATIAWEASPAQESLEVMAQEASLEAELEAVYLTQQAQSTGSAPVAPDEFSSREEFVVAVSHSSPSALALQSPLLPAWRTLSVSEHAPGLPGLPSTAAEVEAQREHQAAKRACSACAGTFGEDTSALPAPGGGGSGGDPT
T6 sequence (Q08493 whole entry): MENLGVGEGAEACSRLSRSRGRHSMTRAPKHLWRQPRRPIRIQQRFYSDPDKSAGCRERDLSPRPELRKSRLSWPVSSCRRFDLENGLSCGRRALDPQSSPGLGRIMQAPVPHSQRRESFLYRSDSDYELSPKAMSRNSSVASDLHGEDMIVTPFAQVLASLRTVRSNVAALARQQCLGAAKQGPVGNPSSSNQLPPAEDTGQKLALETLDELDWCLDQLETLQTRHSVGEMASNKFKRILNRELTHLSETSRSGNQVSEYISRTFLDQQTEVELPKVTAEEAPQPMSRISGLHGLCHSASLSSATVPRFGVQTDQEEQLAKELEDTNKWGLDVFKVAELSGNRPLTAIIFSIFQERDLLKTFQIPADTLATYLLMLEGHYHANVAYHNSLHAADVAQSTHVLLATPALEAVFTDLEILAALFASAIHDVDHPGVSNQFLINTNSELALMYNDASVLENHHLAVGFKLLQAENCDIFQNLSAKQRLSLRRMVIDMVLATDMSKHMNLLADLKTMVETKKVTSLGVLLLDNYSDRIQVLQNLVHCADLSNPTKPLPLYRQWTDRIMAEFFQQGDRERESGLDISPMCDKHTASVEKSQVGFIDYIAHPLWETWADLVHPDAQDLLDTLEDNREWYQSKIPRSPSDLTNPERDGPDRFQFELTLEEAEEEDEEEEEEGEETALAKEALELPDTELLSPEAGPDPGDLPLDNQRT

Row | Structure (SMILES) | serum IL-4 level (DNCB-induced NC/Nga mice [1]) | serum IL-5 level (DNCB-induced NC/Nga mice [1]) | serum IL-17 level (DNCB-induced NC/Nga mice [1]) | serum IFN-γ level (reduced by DNCB) (DNCB-induced NC/Nga mice [1]) | serum IgE level (DNCB-induced NC/Nga mice [1]) | IC50 (PDE4A4) [nM] | IC50 (PDE4D7) [nM] | IC50 (PDE7) [nM] | dorsal skin thickness (DNCB-induced NC/Nga mice [2]) [mm] | spleen weight (DNCB-induced NC/Nga mice [2]) | subiliac lymph node size (DNCB-induced NC/Nga mice [2]) | subiliac lymph node weight (DNCB-induced NC/Nga mice [2]) | week after which significant reduction in dermatitis score was observed (DNCB-induced NC/Nga mice [2]) | scratching frequency (DNCB-induced itching sensation) (DNCB-induced NC/Nga mice [2]) | dermatitis score (DNCB-induced NC/Nga mice [2]) | AD-like skin features (erythema, hemorrhage, dry skin) (DNCB-induced NC/Nga mice [2]) | skin feature of compound alone treated mice (DNCB-induced NC/Nga mice [2]) | intracellular levels of cAMP (Raw 264.7 cells [3]) | LPS-induced TNF-α synthesis (Raw 264.7 cells [4]) | mast cell infiltration in the epidermis region (toluidine blue), number of mast cells (DNCB-induced NC/Nga mice [5]) [per 350 μm^2] | also measured
1 | COc1ccc(NC(=O)c2cnc(SC)nc2N2CCOCC2)cc1OC [compound 1, N-(3,4-dimethoxyphenyl)-2-(methylthio)-4-morpholinopyrimidine-5-carboxamide] | significantly reversed | significantly reversed | reduced level | significantly reversed | significantly reduced | 45 ± 3.54 | 220 ± 16.3 | 389 ± 26.3 | 0.78 | significantly reduced | drastically reduced | drastically reduced | third | significantly (p < 0.01) inhibited | significant reduction | reduced levels of erythema and hemorrhage and dry skin | normal skin feature, no sign of allergy was observed | significantly improved | effectively inhibited | 56 ± 11 | CD4+ cells in the skin (immunohistochemistry) (DNCB-induced NC/Nga mice [5]): reduced levels of CD4+ cells; epidermal thickening (H&E) (DNCB-induced NC/Nga mice [5]): reduced epidermal thickening; infiltration of inflammatory cells into epidermis and dermis (H&E) (DNCB-induced NC/Nga mice [5]): reduced levels of inflammatory cells; IC50 (PDE4B1): 31 ± 7.17 nM; specificity against PDE4B compared to other PDE enzymes (PDE4B1): not exclusive to PDE4B alone; IC50 (PDE1A): 756 ± 59 nM; IC50 (PDE3B): 800 ± 45.8 nM; IC50 (PDE4C1): 77 ± 8.8 nM
2 | COc1ccc(-c2nc(C(F)(F)F)ncc2C(=O)Nc2ccncc2)cc1OC [compound 2, 4-(3,4-dimethoxyphenyl)-N-(pyridin-4-yl)-2-(trifluoromethyl)pyrimidine-5-carboxamide] | significantly reversed | significantly reversed | reduced level | significantly reversed | significantly reduced | 152 ± 1.33 | 108 ± 3.78 | 250 ± 14.6 | 0.64 | significantly reduced | drastically reduced | drastically reduced | second | significantly (p < 0.01) inhibited | significant reduction | reduced levels of erythema and hemorrhage and dry skin | normal skin feature, no sign of allergy was observed | significantly improved | effectively inhibited | 29.41 ± 6 | concentration required to inhibit PDE4D relative to PDE4B (PDE4D7; PDE4D versus PDE4B): nearly sevenfold higher concentration; CD4+ cells in the skin (immunohistochemistry) (DNCB-induced NC/Nga mice [5]): reduced levels of CD4+ cells; epidermal thickening (H&E) (DNCB-induced NC/Nga mice [5]): reduced epidermal thickening; infiltration of inflammatory cells into epidermis and dermis (H&E) (DNCB-induced NC/Nga mice [5]): reduced levels of inflammatory cells; IC50 (PDE4B1): 15 ± 0.4 nM; specificity against PDE4B compared to other PDE enzymes (PDE4B1): high specificity against PDE4B; IC50 (PDE1A): 98 ± 8.45 nM; IC50 (PDE3B): 169 ± 3.78 nM; IC50 (PDE4C1): 57 ± 4.87 nM
